One data set deals with ad libitum fed rat. Briefly: Assay (I) efficacy testing on appetite (food intake) using an ad libitum fed rat model. In kind it is in vivo, Sprague Dawley (SD) rats. The note with it: 3 nmol/kg. The source says:
In the following examples reference is made to the following Assays: • Assay (I)—Experimental protocol for efficacy testing on appetite using an ad libitum fed rat model • ASSAY (II)a—Functional assay—Human calcitonin and amylin receptor assay • ASSAY (II)b—Functional assay—Rat calcitonin and rat amylin receptor assays • ASSAY (III)—ThT fibrillation assays for the assessment of physical stability of protein formulations • ASSAY (IV)—Determination of solubility • ASSAY (V)—Determination of binding to the human amylin receptor • ASSAY (VI)—Determination of the binding to the rat amylin receptor • ASSAY (VII)—Determination of binding to the human calcitonin receptor • ASSAY (VIII)—Determination of binding to the rat calcitonin receptor • ASSAY (IX)—pK—Determination of T½ in mini-pig • ASSAY (X)—pK—Determination of T½ in rat Assay (I)—Experimental protocol for Efficacy Testing on Appetite Using an Ad Libitum Fed Rat Model
Sprague Dawley (SD) rats from Taconic Europe, Denmark are used for the experiments. The rats have a body weight 200-250 g at the start of experiment. The rats arrive at least 10-14 days before start of experiment to allow acclimatization to experimental settings. During this period the animals are handled at least 2 times. After arrival rats are housed individually for one week in a reversed light/dark phase (meaning that lights are off during daytime and on during nighttime) […]. Since rats are normally active and eat their major part of their daily food intake during the dark period, rats are dosed in the morning right before lights are turned off. This set-up results in the lowest data variation and highest test sensitivity. The experiment is conducted in the rats' home cages and rats have free access to food and water throughout the acclimatization period and the experiment period. Each dose of derivative is tested in a group of 5-8 rats. A vehicle group of 6-8 rats is included in each set of testing. Rats are dosed once according to body weight with a 0.01-3 mg/kg solution administered intraperitoneally (ip), orally (po) or subcutaneously (sc). The time of dosing is recorded for each group. After dosing, the rats are returned to their home cages, where they then have access to food and water. The food consumption is recorded individually continuously by on-line registration or manually every hour for 7 hours, and then after 24 h and sometimes 48 h. At the end of the experimental session, the animals are euthanised.
The individual data are recorded in Microsoft excel sheets. Outliers are excluded after applying the Grubbs statistical evaluation test for outliers, and the result is presented graphically using the GraphPad Prism program.

A short description of data set [1]: Assay (III) ThT fibrillation assay for physical stability. The format is physicochemical. The conditions noted are these: pH 4.0, ThT fibrillation assay. The gist of the method:
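Freshly prepared, pH-adjusted formulations with 1 μM ThT incubated at 37 °C under 960 rpm orbital shaking (1 mm), fluorescence (ex 444, em 485 nm) read every 20 min. […] Peptide content before and after measured by reverse-phase HPLC against pramlintide standard.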

The values that follow come from patent publication US8741836B2, “Polypeptides” (Novo Nordisk A/S, priority 2011, dated 2014).

Starred links: 1 amine or outer side, 2 acyl side, 3 side chain; linkers in the order of their positions; H or OH if unused. Positions of bridges follow the written chain, without caps; N, C: chain ends. Residues, ends and D or L forms follow the SMILES beside them. *: point of attachment. C20 diacid = O=C(O)CCCCCCCCCCCCCCCCCCC(=O)*; γGlu = O=C(O)[C@H](CCC(=O)[*:2])N[*:1]

For `CC[C@H](C)[C@H](NC(=O)[C@@H]1CCCN1C(=O)CNC(=O)[C@H](Cc1ccccc1)NC(=O)[C@H](CC(N)=O)NC(=O)[C@H](CC(N)=O)NC(=O)[C@H](CO)NC(=O)[C@H](CO)NC(=O)[C@H](Cc1c[nH]cn1)NC(=O)[C@H](Cc1c[nH]cn1)NC(=O)[C@H](CC(C)C)NC(=O)[C@H](Cc1ccccc1)NC(=O)[C@H](CCC(=O)O)NC(=O)[C@H](C)NC(=O)[C@H](CC(C)C)NC(=O)[C@H](CCCNC(=N)N)NC(=O)[C@H](CCC(N)=O)NC(=O)[C@@H](NC(=O)[C@H](C)NC(=O)[C@@H]1CSSC[C@H](NC(=O)[C@H](CCCCN)NC(=O)[C@H](CCC(=O)O)NC(=O)CC[C@H](NC(=O)CCCCCCCCCCCCCCCCCCC(=O)O)C(=O)O)C(=O)N[C@@H](CC(N)=O)C(=O)N[C@@H]([C@@H](C)O)C(=O)N[C@@H](C)C(=O)N[C@@H]([C@@H](C)O)C(=O)N1)[C@@H](C)O)C(=O)N[C@@H](CC(C)C)C(=O)N1CCC[C@H]1C(=O)N1CCC[C@H]1C(=O)N[C@H](C(=O)N[C@@H](CC(N)=O)C(=O)N[C@H](C(=O)NCC(=O)N[C@@H](CO)C(=O)N[C@@H](CC(N)=O)C(=O)N[C@H](C(=O)N[C@@H](Cc1ccc(O)cc1)C(N)=O)[C@@H](C)O)C(C)C)[C@@H](C)O` [Example 26, N-alpha-[(S)-4-Carboxy-4-(19-carboxynonadecanoylamino)butyryl]-Glu-[Glu14,His17]-pramlintide] ({C20 diacid-γGlu}-EKCNTATCATQRLAEFLHHSSNNFGPILPPTNVGSNTY-NH2; disulfide 3-8 (inferred)), in the data set with ad libitum fed rat, the “Food intake reduction 0-24 h 3 nmol/kg (%)” value was determined as 46% and the “Food intake reduction 24-48 h 3 nmol/kg (%)” value amounted to 39%.
Turning to `CC[C@H](C)[C@H](NC(=O)[C@@H]1CCCN1C(=O)CNC(=O)[C@H](Cc1ccccc1)NC(=O)[C@H](CC(N)=O)NC(=O)[C@H](CC(N)=O)NC(=O)[C@H](CO)NC(=O)[C@H](CO)NC(=O)[C@H](Cc1c[nH]cn1)NC(=O)[C@H](Cc1c[nH]cn1)NC(=O)[C@H](CC(C)C)NC(=O)[C@H](Cc1ccccc1)NC(=O)[C@H](CCC(=O)O)NC(=O)[C@H](C)NC(=O)[C@H](CC(C)C)NC(=O)[C@H](CCCNC(=N)N)NC(=O)[C@H](CCC(N)=O)NC(=O)[C@@H](NC(=O)[C@H](C)NC(=O)[C@@H]1CSSC[C@H](NC(=O)[C@H](CCCCN)NC(=O)[C@H](CCC(=O)O)NC(=O)CC[C@H](NC(=O)CCCCCCCCCCCCCCCCCCC(=O)O)C(=O)O)C(=O)N[C@@H](CC(N)=O)C(=O)N[C@@H]([C@@H](C)O)C(=O)N[C@@H](C)C(=O)N[C@@H]([C@@H](C)O)C(=O)N1)[C@@H](C)O)C(=O)N[C@@H](CC(C)C)C(=O)N1CCC[C@H]1C(=O)N1CCC[C@H]1C(=O)N[C@H](C(=O)N[C@@H](CC(N)=O)C(=O)N[C@H](C(=O)NCC(=O)N[C@@H](CO)C(=O)N[C@@H](Cc1c[nH]cn1)C(=O)N[C@H](C(=O)N[C@@H](Cc1ccc(O)cc1)C(N)=O)[C@@H](C)O)C(C)C)[C@@H](C)O` [Example 56, N-alpha-[(S)-4-Carboxy-4-(19-carboxynonadecanoylamino)butyryl]-Glu-[Glu14,His17,His35]-pramlintide] ({C20 diacid-γGlu}-EKCNTATCATQRLAEFLHHSSNNFGPILPPTNVGSHTY-NH2; disulfide 3-8), in the data set on ad libitum fed rat, the “Food intake reduction 0-24 h 3 nmol/kg (%)” value came to 46% and the “Food intake reduction 24-48 h 3 nmol/kg (%)” value amounted to 21%.
`CC[C@H](C)[C@H](NC(=O)[C@@H]1CCCN1C(=O)CNC(=O)[C@H](Cc1ccccc1)NC(=O)[C@H](CC(N)=O)NC(=O)[C@H](CC(N)=O)NC(=O)[C@H](CO)NC(=O)[C@H](CO)NC(=O)[C@H](Cc1c[nH]cn1)NC(=O)[C@H](Cc1c[nH]cn1)NC(=O)[C@H](CC(C)C)NC(=O)[C@H](Cc1ccccc1)NC(=O)[C@H](CCC(=O)O)NC(=O)[C@H](C)NC(=O)[C@H](CC(C)C)NC(=O)[C@H](CCCNC(=N)N)NC(=O)[C@H](CCC(N)=O)NC(=O)[C@@H](NC(=O)[C@H](C)NC(=O)[C@@H]1CSSC[C@H](NC(=O)[C@H](CCCCN)NC(=O)[C@H](CO)NC(=O)CC[C@H](NC(=O)CCCCCCCCCCCCCCCCCCC(=O)O)C(=O)O)C(=O)N[C@@H](CC(N)=O)C(=O)N[C@@H]([C@@H](C)O)C(=O)N[C@@H](C)C(=O)N[C@@H]([C@@H](C)O)C(=O)N1)[C@@H](C)O)C(=O)N[C@@H](CC(C)C)C(=O)N1CCC[C@H]1C(=O)N1CCC[C@H]1C(=O)N[C@H](C(=O)N[C@@H](CC(N)=O)C(=O)N[C@H](C(=O)NCC(=O)N[C@@H](CO)C(=O)N[C@@H](Cc1c[nH]cn1)C(=O)N[C@H](C(=O)N[C@@H](Cc1ccc(O)cc1)C(N)=O)[C@@H](C)O)C(C)C)[C@@H](C)O` [Example 85, N-alpha-[(S)-4-Carboxy-4-(19-carboxynonadecanoylamino)butyryl]-Ser-[Glu14,His17,His35]-pramlintide] ({C20 diacid-γGlu}-SKCNTATCATQRLAEFLHHSSNNFGPILPPTNVGSHTY-NH2; disulfide 3-8): the “ThT pH 4.0 lag time” value in data set [1] is recorded as more than 45 h.
On the same count and under the same terms, for `CC[C@H](C)[C@H](NC(=O)[C@@H]1CCCN1C(=O)CNC(=O)[C@H](Cc1ccccc1)NC(=O)[C@H](CC(N)=O)NC(=O)[C@H](CC(N)=O)NC(=O)[C@H](CO)NC(=O)[C@H](CO)NC(=O)[C@H](Cc1c[nH]cn1)NC(=O)[C@H](Cc1c[nH]cn1)NC(=O)[C@H](CC(C)C)NC(=O)[C@H](Cc1ccccc1)NC(=O)[C@H](CCC(=O)O)NC(=O)[C@H](C)NC(=O)[C@H](CC(C)C)NC(=O)[C@H](CCCNC(=N)N)NC(=O)[C@H](CCC(N)=O)NC(=O)[C@@H](NC(=O)[C@H](C)NC(=O)[C@@H]1CSSC[C@H](NC(=O)[C@H](CCCNC(=N)N)NC(=O)CNC(=O)CC[C@H](NC(=O)CCCCCCCCCCCCCCCCCCC(=O)O)C(=O)O)C(=O)N[C@@H](CC(N)=O)C(=O)N[C@@H]([C@@H](C)O)C(=O)N[C@@H](C)C(=O)N[C@@H]([C@@H](C)O)C(=O)N1)[C@@H](C)O)C(=O)N[C@@H](CC(C)C)C(=O)N1CCC[C@H]1C(=O)N1CCC[C@H]1C(=O)N[C@H](C(=O)N[C@@H](CC(N)=O)C(=O)N[C@H](C(=O)NCC(=O)N[C@@H](CO)C(=O)N[C@@H](Cc1c[nH]cn1)C(=O)N[C@H](C(=O)N[C@@H](Cc1ccc(O)cc1)C(N)=O)[C@@H](C)O)C(C)C)[C@@H](C)O` [Example 100, N-alpha-[(S)-4-Carboxy-4-(19-carboxynonadecanoylamino)butyryl]-Gly-[Arg1,Glu14,His17,His35]-pramlintide] ({C20 diacid-γGlu}-GRCNTATCATQRLAEFLHHSSNNFGPILPPTNVGSHTY-NH2; disulfide 3-8 (inferred)) the value was 26 h; for `CC[C@H](C)[C@H](NC(=O)[C@@H]1CCCN1C(=O)CNC(=O)[C@H](Cc1ccccc1)NC(=O)[C@H](CC(N)=O)NC(=O)[C@H](CC(N)=O)NC(=O)[C@H](CO)NC(=O)[C@H](CO)NC(=O)[C@H](Cc1c[nH]cn1)NC(=O)[C@H](Cc1c[nH]cn1)NC(=O)[C@H](CC(C)C)NC(=O)[C@H](Cc1ccccc1)NC(=O)[C@H](CCC(=O)O)NC(=O)[C@H](C)NC(=O)[C@H](CC(C)C)NC(=O)[C@H](CCCNC(=N)N)NC(=O)[C@H](CCC(N)=O)NC(=O)[C@@H](NC(=O)[C@H](C)NC(=O)[C@@H]1CSSC[C@H](NC(=O)[C@H](CCCCN)NC(=O)CC[C@H](NC(=O)CCCCCCCCCCCCCCCCCCC(=O)O)C(=O)O)C(=O)N[C@@H](CC(N)=O)C(=O)N[C@@H]([C@@H](C)O)C(=O)N[C@@H](C)C(=O)N[C@@H]([C@@H](C)O)C(=O)N1)[C@@H](C)O)C(=O)N[C@@H](CC(C)C)C(=O)N1CCC[C@H]1C(=O)N1CCC[C@H]1C(=O)N[C@H](C(=O)N[C@@H](CC(N)=O)C(=O)N[C@H](C(=O)NCC(=O)N[C@@H](CO)C(=O)N[C@@H](CCCNC(=N)N)C(=O)N[C@H](C(=O)N[C@@H](Cc1ccc(O)cc1)C(N)=O)[C@@H](C)O)C(C)C)[C@@H](C)O` [Example 112, N-alpha-[(S)-4-Carboxy-4-(19-carboxynonadecanoylamino)butyryl]-[Glu14,His17,Arg35]-pramlintide] ({C20 diacid-γGlu}-KCNTATCATQRLAEFLHHSSNNFGPILPPTNVGSRTY-NH2; disulfide 2-7 (inferred)), more than 45 h.
